Among the data in ChEMBL document CHEMBL1201862, “PubChem BioAssay data set” (2004) are IC50 values, retold here.

Active and inactive are the calls of the source. Rule as the data show it: actives have a measured IC50 and inactives only a lower limit.

By IC50 is commonly meant the concentration at which inhibition is half-maximal.

Sequence of Envelope glycoprotein gp160 (Q6QLK5 whole entry, the tested form may be a part): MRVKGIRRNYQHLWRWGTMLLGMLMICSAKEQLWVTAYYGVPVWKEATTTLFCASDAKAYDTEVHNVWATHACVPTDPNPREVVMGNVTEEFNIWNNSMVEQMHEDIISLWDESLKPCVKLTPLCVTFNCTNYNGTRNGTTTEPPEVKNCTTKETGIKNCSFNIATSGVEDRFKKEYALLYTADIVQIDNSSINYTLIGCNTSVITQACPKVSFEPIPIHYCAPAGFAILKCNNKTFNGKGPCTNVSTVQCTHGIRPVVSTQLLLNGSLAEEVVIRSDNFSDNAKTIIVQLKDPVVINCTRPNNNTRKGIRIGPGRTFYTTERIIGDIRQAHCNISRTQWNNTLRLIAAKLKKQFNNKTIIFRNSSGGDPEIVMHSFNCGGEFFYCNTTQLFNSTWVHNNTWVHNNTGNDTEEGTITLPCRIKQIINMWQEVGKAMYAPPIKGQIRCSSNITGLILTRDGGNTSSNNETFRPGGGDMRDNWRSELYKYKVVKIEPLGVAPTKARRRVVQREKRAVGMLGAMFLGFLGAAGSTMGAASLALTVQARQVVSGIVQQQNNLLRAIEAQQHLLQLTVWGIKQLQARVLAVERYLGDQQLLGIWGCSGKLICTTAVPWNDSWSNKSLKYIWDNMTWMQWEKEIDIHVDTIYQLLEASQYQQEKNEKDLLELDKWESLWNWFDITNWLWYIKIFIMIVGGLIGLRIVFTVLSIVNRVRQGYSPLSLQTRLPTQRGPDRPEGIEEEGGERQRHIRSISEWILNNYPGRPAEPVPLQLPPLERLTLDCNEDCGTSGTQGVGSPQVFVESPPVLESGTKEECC

This assay has as its target Envelope glycoprotein gp160 (Human immunodeficiency virus 1, UniProt Q6QLK5). Kind of assay: inhibitors of HIV fusion peptide binding, primary screen, biochemical, uHTS, fluorescence dequenching (AID 1986).
Consider `O=[N+]([O-])c1cccc(S(=O)(=O)Nc2nc3ccccc3nc2Nc2cccc(S(=O)(=O)N3CCCCC3)c2)c1`, for which the IC50 was 14.5 µM (active). In the case of `Cc1cc(C)cc(-n2cccc2/C=C2/C(=N)N3C(=NC2=O)SN=C3S(C)(=O)=O)c1`, the half-maximal inhibitory concentration (IC50) was 11.6 µM (active).

Consider `O=C1NC(=S)N(c2ccc(F)cc2)C(=O)/C1=C/c1ccco1`, for which the half-inhibitory concentration (IC50) is 15.6 µM (active). Consider `O=C(O)CN1C(=O)/C(=C\c2cccc(OCc3ccc(Cl)cc3)c2)SC1=S`, for which the IC50 was 13.6 µM (active). The value for `CCCCCCc1c(C)c2ccc(OCC(=O)N[C@@H](Cc3ccccc3)C(=O)O)cc2oc1=O` was 22.8 µM (active); that for `Cc1ccc(C)c(S(=O)(=O)/N=C2\C=C(NS(=O)(=O)c3ccccc3)C(=O)c3ccccc32)c1` was 12.9 µM (active).
